Results on 1 compound are retold here after patent US10273240B2, “Cortistatin analogues, syntheses, and uses thereof” (President and Fellows of Harvard College, priority 2015, dated 2019).

Some results are limits rather than exact numbers.

One experiment deals with T1, CDK7 (TFIIH) (Homo sapiens, UniProt P50613).
T1 construct: TFIIH was captured from HeLa nuclear extract; endogenous in cells; host or cells: HeLa nuclear extract
Description: In vitro kinase assay, CDK7 (TFIIH). It counts as biochemical. How it is done:
Kinase Assays. Data was quantified with ImageJ and plotted and fitted with GraphPad Prism 6.0. For STAT1 transactivation domain (TAD), 750 ng of GST-STAT1 TAD (residues 639-750) was incubated with ˜50 ng recombinant CDK8 module at 30° C. for 8 min in kinase buffer (25 mM Tris pH 8, 2 mM DTT, 100 μM cold ATP, 100 mM KCl, 10 mM MgCl2 and 2.5 μCi [γ-^32P] ATP (Perkin Elmer) per reaction). […] 12% SDS-PAGE gels were subsequently silver stained, exposed for 18 h on a Phosphor Screen and imaged (Typhoon 9400, GE Life Sciences). For pol II CTD, 400 ng of GST-CTD (murine sequence) was incubated with ˜40 ng recombinant CDK8 module, 25 ng TFIIH, or 40 ng P-TEFb at 30° C. for 60 min in kinase buffer. Kinase amounts were chosen to give similar total pol II CTD signal. 9% SDS-PAGE gels were silver stained and exposed as above. In vitro FLAG-CDK8 kinase assays used ˜40 ng kinase and 500 ng GST-CTD. For STAT1 or Smad2/3, cells were treated with compound for 1 h followed by IFN-γ or TGF-β1 for 1 h, then washed twice with cold PBS, and lysed (RIPA buffer with inhibitors R0278, P8340, P0044, P5762 Sigma-Aldrich). Standard immunoblotting was then performed with one immunoblot shown. All experiments were performed twice.
Protein Purification. Buffers for purification and elution of recombinant proteins included 0.25 mM PMSF, 1 mM DTT, 1 mM benzamidine, and 1 mM sodium metabisulfite. […]

The subject of a further experiment is TF-1. Description: Cell growth assay, TF-1. In kind it is cell-based. Particulars: Homo sapiens, TF-1, 240 h; CA, after 10 days; read-out: Mean GI50 (nM), TF-1. The method, then:
(§1) Cell Culture. All media was supplemented with 100 U/mL penicillin and 100 μg/mL streptomycin. Human cancer cell lines were grown in the following media: MV4; 11, RS4; 11, K562, HEL, MOLM-14, MEG-01 in RPMI-1640, 10% FBS; SET-2 in RPMI-1640, 20% FBS; UKE-1 in RPMI-1640, 10% FBS, 10% horse serum and 1 μM hydrocortisone; SKNO-1 and TF-1 in RPMI-1640, 10% FBS, and 10 or 2 ng/mL GM-CSF, respectively; HaCaT in DMEM, 10% FBS; and HCT116 in McCoy's 5 A, 10% FBS (proliferation assay) or DMEM, 10% FBS (gene expression study). HepG2, MV4;11, RS4;11, MEG-01, TF-1, HCT116 and K562 were from ATCC. SKNO-1 was from DSMZ. HEL, UKE-1, and SET-2 were provided by Ross L. Levine and HaCaT, MV4;11-mCLP, and MOLM-14 by Van Wilson, Andrew L. Kung, and Scott A. Armstrong, respectively. MOLM-14 cells were authenticated by STR profiling and flow cytometry and all cell lines were routinely tested and found to be negative for mycoplasma.

A further experiment concerns UKE-1. Description: Cell growth assay, UKE-1. The settings on record: Homo sapiens, UKE1, 240 h; CA, after 10 days. It counts as cell-based. The method, then: as §1
Experiment [1] has as its target T2, CDK12 in MOLM-14 cell lysate (Homo sapiens, UniProt Q9NYV4).
T2 construct: endogenous in cells; host or cells: MOLM-14 cell lysate
Description: Native kinase capture immunoblot, CDK12. It counts as binding. The method, then:
Native Kinase Capture Immunoblot and Native Kinome-Wide Profiling. […] Experiment was performed twice with one immunoblot shown.
In general terms: A western blot detects proteins with antibodies after separation by electrophoresis.

T2 sequence (Q9NYV4 whole entry): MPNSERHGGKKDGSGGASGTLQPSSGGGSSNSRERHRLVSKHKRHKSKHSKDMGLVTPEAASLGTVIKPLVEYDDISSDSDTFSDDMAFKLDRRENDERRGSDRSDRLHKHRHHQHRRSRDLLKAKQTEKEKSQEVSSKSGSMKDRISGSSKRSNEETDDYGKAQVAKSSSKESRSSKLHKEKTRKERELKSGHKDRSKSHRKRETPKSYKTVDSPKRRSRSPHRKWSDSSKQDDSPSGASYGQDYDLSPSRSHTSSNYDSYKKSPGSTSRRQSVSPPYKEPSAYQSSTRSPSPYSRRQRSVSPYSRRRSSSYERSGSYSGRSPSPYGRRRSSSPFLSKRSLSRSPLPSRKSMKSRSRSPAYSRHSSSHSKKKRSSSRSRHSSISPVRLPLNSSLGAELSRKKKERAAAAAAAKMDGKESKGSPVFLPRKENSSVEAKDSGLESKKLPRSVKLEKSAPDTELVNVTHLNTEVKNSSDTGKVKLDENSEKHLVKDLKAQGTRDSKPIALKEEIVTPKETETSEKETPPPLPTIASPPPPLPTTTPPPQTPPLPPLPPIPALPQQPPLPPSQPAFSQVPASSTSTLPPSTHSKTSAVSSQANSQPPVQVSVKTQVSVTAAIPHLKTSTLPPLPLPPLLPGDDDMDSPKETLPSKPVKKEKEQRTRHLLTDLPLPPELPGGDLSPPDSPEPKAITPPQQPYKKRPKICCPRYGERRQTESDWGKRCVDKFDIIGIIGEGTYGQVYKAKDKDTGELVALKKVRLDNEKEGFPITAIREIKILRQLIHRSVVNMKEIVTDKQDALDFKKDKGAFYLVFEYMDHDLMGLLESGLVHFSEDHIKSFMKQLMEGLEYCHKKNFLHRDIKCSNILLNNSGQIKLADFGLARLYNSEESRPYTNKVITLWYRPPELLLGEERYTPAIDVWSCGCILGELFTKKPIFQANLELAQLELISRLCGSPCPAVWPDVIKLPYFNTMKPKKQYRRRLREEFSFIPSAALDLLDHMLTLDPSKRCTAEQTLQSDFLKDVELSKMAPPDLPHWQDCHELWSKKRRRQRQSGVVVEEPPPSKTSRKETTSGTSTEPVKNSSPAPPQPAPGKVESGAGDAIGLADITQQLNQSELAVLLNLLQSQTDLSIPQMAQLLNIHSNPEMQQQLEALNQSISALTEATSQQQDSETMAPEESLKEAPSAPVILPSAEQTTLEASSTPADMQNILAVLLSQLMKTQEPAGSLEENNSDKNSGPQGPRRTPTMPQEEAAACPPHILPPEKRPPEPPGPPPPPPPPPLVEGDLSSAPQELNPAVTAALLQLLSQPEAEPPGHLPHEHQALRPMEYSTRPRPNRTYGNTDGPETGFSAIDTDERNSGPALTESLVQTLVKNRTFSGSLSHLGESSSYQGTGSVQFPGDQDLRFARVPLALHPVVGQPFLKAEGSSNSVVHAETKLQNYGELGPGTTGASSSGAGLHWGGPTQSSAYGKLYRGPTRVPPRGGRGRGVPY
T2 sequence (O75909 whole entry partner): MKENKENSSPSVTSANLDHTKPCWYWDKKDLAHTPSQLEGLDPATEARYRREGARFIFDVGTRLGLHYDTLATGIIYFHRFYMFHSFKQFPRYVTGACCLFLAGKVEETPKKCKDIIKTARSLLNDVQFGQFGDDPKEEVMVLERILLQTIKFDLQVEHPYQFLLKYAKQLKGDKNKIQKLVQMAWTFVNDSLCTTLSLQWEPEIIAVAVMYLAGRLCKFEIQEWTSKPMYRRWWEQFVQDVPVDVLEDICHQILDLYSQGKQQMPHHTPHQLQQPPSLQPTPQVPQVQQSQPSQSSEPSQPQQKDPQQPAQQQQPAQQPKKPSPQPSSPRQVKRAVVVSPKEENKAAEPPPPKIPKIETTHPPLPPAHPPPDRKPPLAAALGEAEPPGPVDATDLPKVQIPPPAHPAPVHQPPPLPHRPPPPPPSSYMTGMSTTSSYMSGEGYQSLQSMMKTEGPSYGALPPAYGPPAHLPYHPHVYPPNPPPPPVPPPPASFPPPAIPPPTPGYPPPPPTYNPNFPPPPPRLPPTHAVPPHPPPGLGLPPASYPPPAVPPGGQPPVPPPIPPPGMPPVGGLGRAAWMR

What is called GI50 is the concentration giving 50% growth inhibition. For `CN(C)[C@H]1C[C@@]23CC[C@@]4(O2)C(=CC[C@@]2(C)[C@@H](c5ccc6ccncc6c5)CC[C@H]24)C=C3[C@@H](O)[C@@H]1O` [CA, cortistatin A], on CDK7 (TFIIH), the “inhibition of CDK7 (TFIIH)” value is recorded as “did not inhibit”. The GI50 amounted to 350 nM with TF-1 and 7 nM with UKE-1. Moreover, the “binding of CDK12 (no binding at up to)” value in experiment [1] is reported as over 2500 nM.
